Results from patent publication US20240279278A1, “NMU RECEPTOR 2 AGONISTS” (Boehringer Ingelheim International GmbH, priority 2023, published 2024).
Residues, ends and D or L forms follow the SMILES beside them.

Legend:
Format in all cases: cell-based
[1] = biological target: T1, human NMUR2 receptor (Homo sapiens, UniProt Q9GZQ4); test: IP1 Gq HTRF assay, activation of human NMUR2 in human plasma; parameters: expressed in transfected cells; host or cells: CHO-K1; conditions: CHO-K1 cells expressing human NMUR2, 100% human plasma; read-out: EC50 (hNMUR2) human plasma
Outline: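 CHO-K1 cells stably expressing human NMUR2 exposed to peptide agonists (8-point dose-response) in 100% human plasma with 50 mM LiCl, 1% DMSO, for 1 h at 37° C. IP1 accumulation read by HTRF competition (665/620 nm ratio). EC50 from 4-parameter sigmoidal fit.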

[2] = biological target: T2, human NMUR1 receptor (Homo sapiens, UniProt Q9HB89); test: IP1 Gq HTRF assay, activation of human NMUR1 in buffer; conditions: CHO-K1 cells expressing human NMUR1, stimulation buffer with 0.1% BSA; read-out: EC50 (hNMUR1) buffer
T2 construct: expressed in transfected cells; host or cells: CHO-K1
T2 sequence (Q9HB89 1-426): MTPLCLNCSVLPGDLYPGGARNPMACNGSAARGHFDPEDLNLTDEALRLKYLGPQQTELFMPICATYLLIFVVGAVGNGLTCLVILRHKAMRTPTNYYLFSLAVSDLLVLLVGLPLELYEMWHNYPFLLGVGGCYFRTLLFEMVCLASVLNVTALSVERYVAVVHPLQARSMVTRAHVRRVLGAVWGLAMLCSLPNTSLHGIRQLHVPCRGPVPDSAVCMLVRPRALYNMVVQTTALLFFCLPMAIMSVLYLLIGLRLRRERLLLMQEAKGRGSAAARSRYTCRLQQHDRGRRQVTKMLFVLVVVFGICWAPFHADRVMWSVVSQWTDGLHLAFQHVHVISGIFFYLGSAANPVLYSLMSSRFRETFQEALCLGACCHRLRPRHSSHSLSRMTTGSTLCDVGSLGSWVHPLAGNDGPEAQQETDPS
Outline: (§1)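 CHO-K1 cells stably expressing human NMUR1 or NMUR2, seeded 24 h before assay, stimulated with peptide agonists (8-point dose-response, 1% DMSO final) in HEPES/HBSS buffer with 50 mM LiCl and 0.1% BSA, pH 7.4, 1 h at 37 °C. IP1 accumulation read by HTRF competition (665/620 nm); EC50 from 4-parameter sigmoidal fit.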

[3] = biological target: T1, human NMUR2 receptor; test: IP1 Gq HTRF assay, activation of human NMUR2 in buffer; parameters: expressed in transfected cells; host or cells: CHO-K1; conditions: CHO-K1 cells expressing human NMUR2, stimulation buffer with 0.1% BSA; read-out: EC50 (hNMUR2) buffer
Outline: as §1

T1 sequence (Q9GZQ4 whole entry): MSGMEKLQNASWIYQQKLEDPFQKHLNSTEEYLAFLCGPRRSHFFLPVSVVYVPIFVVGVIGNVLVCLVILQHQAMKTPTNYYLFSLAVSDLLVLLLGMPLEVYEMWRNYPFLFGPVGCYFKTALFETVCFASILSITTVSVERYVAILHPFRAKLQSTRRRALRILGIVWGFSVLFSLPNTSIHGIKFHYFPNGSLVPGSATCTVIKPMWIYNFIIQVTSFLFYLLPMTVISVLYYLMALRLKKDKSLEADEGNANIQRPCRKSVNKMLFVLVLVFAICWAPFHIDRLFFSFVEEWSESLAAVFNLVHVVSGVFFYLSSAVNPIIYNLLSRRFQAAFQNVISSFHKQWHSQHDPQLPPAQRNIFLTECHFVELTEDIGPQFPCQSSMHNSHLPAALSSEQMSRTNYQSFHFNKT

| SMILES | EC50 [1] [nM] | EC50 [2] [nM] | EC50 [3] [nM] |
| --- | --- | --- | --- |
| CCCC[C@H](NC(=O)[C@H](CC(C)C)N(C)C(=O)[C@H](Cc1ccccc1)NC(=O)[C@H](Cc1ccc(O)cc1)NC(=O)CN1CCN(CCNC(=O)CN(C)C(=O)CN(C)C(=O)CN(C)C(=O)CN(C)C(=O)CN(C)C(=O)CN(C)C(=O)CN(C)C(=O)CN(C)C(=O)CN(C)C(=O)CN(C)C(=O)CN(C)C(=O)CN(C)C(=O)CN(C)C(=O)CN(C)C(=O)CN(C)C(=O)CC[C@H](NC(=O)CC[C@H](NC(=O)CC[C@H](NC(=O)CC[C@H](NC(=O)CCCCCCCCCCCCCCCCCCC(=O)O)C(=O)O)C(=O)O)C(=O)O)C(=O)O)CC1)C(=O)N[C@@H](CCN)C(=O)N1CCC[C@H]1C(=O)N[C@@H](CCCNC(=N)N)C(=O)NCC(N)=O [Compound 4, C20DA-gGlu4-Sar15-AEPipAc-Tyr-Phe-NMeLeu-Nle-Dbu-Pro-Arg-Gly-NH2] (HELM PEPTIDE1{[O=C(O)CCCCCCCCCCCCCCCCCCC(=O)[*:2]].[gGlu].[gGlu].[gGlu].[gGlu].[Sar].[Sar].[Sar].[Sar].[Sar].[Sar].[Sar].[Sar].[Sar].[Sar].[Sar].[Sar].[Sar].[Sar].[Sar].[O=C(CN1CCN(CCN[*:1])CC1)[*:2]].Y.F.[meL].[Nle].[Dab].P.R.G.[am]}$$$$V2.0) | 5.8 | 770 | 2 |
| CCCC[C@H](NC(=O)[C@H](CC(C)C)N(C)C(=O)[C@H](Cc1ccccc1)NC(=O)[C@H](Cc1ccc(O)cc1)NC(=O)CN1CCN(CCNC(=O)CN(C)C(=O)CN(C)C(=O)CN(C)C(=O)CN(C)C(=O)CN(C)C(=O)CN(C)C(=O)CN(C)C(=O)CN(C)C(=O)CN(C)C(=O)CN(C)C(=O)CN(C)C(=O)CN(C)C(=O)CC[C@H](NC(=O)CC[C@H](NC(=O)CC[C@H](NC(=O)CCCCCCCCCCCCCCCCC(=O)O)C(=O)O)C(=O)O)C(=O)O)CC1)C(=O)N(C)[C@@H](CCCNC(=N)N)C(=O)N(C)[C@@H](C)C(=O)N[C@@H](CCCNC(=N)N)C(=O)NCC(N)=O [Compound 37, C18DA-gGlu3-Sar12-AEPipAc-Tyr-Phe-NMeLeu-Nle-NMeArg-NMeAla-Arg-Gly-NH2] | 27.1 | 1300 | 3.5 |
| CCCC[C@H](NC(=O)[C@H](CC(C)C)N(C)C(=O)[C@H](Cc1ccccc1)NC(=O)[C@H](Cc1ccc(O)cc1)NC(=O)CN1CCN(CCNC(=O)CN(C)C(=O)CN(C)C(=O)CN(C)C(=O)CN(C)C(=O)CN(C)C(=O)CN(C)C(=O)CN(C)C(=O)CN(C)C(=O)CN(C)C(=O)CN(C)C(=O)CN(C)C(=O)CN(C)C(=O)CN(C)C(=O)CN(C)C(=O)CN(C)C(=O)CC[C@H](NC(=O)CC[C@H](NC(=O)CC[C@H](NC(=O)CC[C@H](NC(=O)CCCCCCCCCCCCCCCCCCC(=O)O)C(=O)O)C(=O)O)C(=O)O)C(=O)O)CC1)C(=O)N[C@@H](CCN)C(=O)N(C)[C@@H](C)C(=O)N[C@@H](CCCNC(=N)N)C(=O)NCC(N)=O [Compound 16, C20DA-gGlu4-Sar15-AEPipAc-Tyr-Phe-NMeLeu-Nle-Dbu-NMeAla-Arg-Gly-NH2] (HELM PEPTIDE1{[O=C(O)CCCCCCCCCCCCCCCCCCC(=O)[*:2]].[gGlu].[gGlu].[gGlu].[gGlu].[Sar].[Sar].[Sar].[Sar].[Sar].[Sar].[Sar].[Sar].[Sar].[Sar].[Sar].[Sar].[Sar].[Sar].[Sar].[O=C(CN1CCN(CCN[*:1])CC1)[*:2]].Y.F.[meL].[Nle].[Dab].[meA].R.G.[am]}$$$$V2.0) | 11 | > 1000 | 3.3 |
| CCCC[C@H](NC(=O)[C@H](CC(C)C)N(C)C(=O)[C@H](Cc1ccccc1)NC(=O)[C@H](Cc1ccc(O)cc1)NC(=O)CN1CCN(C(=O)CN(C)C(=O)CN(C)C(=O)CN(C)C(=O)CN(C)C(=O)CN(C)C(=O)CN(C)C(=O)CN(C)C(=O)CN(C)C(=O)CN(C)C(=O)CN(C)C(=O)CN(C)C(=O)CN(C)C(=O)CN(C)C(=O)CN(C)C(=O)CN(C)C(=O)CC[C@H](NC(=O)CC[C@H](NC(=O)CC[C@H](NC(=O)CCCCCCCCCCCCCCCCC(=O)O)C(=O)O)C(=O)O)C(=O)O)CC1)C(=O)N[C@@H](CCN)C(=O)N(C)[C@@H](C)C(=O)N[C@@H](CCCNC(=N)N)C(=O)NCC(N)=O [Compound 79, C18DA-gGlu3-Sar15-PipAc-Tyr-Phe-NMeLeu-Nle-Dbu-NMeAla-Arg-Gly-NH2] (HELM PEPTIDE1{[O=C(O)CCCCCCCCCCCCCCCCC(=O)[*:2]].[gGlu].[gGlu].[gGlu].[Sar].[Sar].[Sar].[Sar].[Sar].[Sar].[Sar].[Sar].[Sar].[Sar].[Sar].[Sar].[Sar].[Sar].[Sar].[O=C(CN1CCN([*:1])CC1)[*:2]].Y.F.[meL].[Nle].[Dab].[meA].R.G.[am]}$$$$V2.0) | 7 | > 1000 | 1.3 |
| CCCC[C@H](NC(=O)[C@H](CC(C)C)N(C)C(=O)[C@H](Cc1ccccc1)NC(=O)[C@H](Cc1ccc(O)cc1)NC(=O)CN1CCN(CCNC(=O)CN(C)C(=O)CN(C)C(=O)CN(C)C(=O)CN(C)C(=O)CN(C)C(=O)CN(C)C(=O)CN(C)C(=O)CN(C)C(=O)CN(C)C(=O)CN(C)C(=O)CN(C)C(=O)CN(C)C(=O)CC[C@H](NC(=O)CC[C@H](NC(=O)CC[C@H](NC(=O)CC[C@H](NC(=O)CCCCCCCCCCCCCCCCC(=O)O)C(=O)O)C(=O)O)C(=O)O)C(=O)O)CC1)C(=O)N[C@@H](CCCNC(=N)N)C(=O)N1CCC[C@H]1C(=O)N[C@@H](CCCNC(=N)N)C(=O)NCC(N)=O [Compound 2, C18DA-gGlu4-Sar12-AEPipAc-Tyr-Phe-NMeLeu-Nle-Arg-Pro-Arg-Gly-NH2] | 3.7 | 220 | 1.1 |
| CCCC[C@H](NC(=O)[C@H](CC(C)C)N(C)C(=O)[C@H](Cc1ccccc1)NC(=O)[C@H](Cc1ccc(O)cc1)NC(=O)CN1CCN(CCNC(=O)CN(C)C(=O)CN(C)C(=O)CN(C)C(=O)CN(C)C(=O)CN(C)C(=O)CN(C)C(=O)CN(C)C(=O)CN(C)C(=O)CN(C)C(=O)CN(C)C(=O)CN(C)C(=O)CN(C)C(=O)CC[C@H](NC(=O)CC[C@H](NC(=O)CC[C@H](NC(=O)CC[C@H](NC(=O)CCCCCCCCCCCCCCCCCCC(=O)O)C(=O)O)C(=O)O)C(=O)O)C(=O)O)CC1)C(=O)N[C@@H](CCCCN)C(=O)N1CCC[C@H]1C(=O)N[C@@H](CCCNC(=N)N)C(=O)NCC(N)=O [Compound 32, C20DA-gGlu4-Sar12-AEPipAc-Tyr-Phe-NMeLeu-Nle-Lys-Pro-Arg-Gly-NH2] | 31.2 | 1200 | 6.5 |
| CCCC[C@H](NC(=O)[C@H](CC(C)C)N(C)C(=O)[C@H](Cc1ccccc1)NC(=O)[C@H](Cc1ccc(O)cc1)NC(=O)CN1CCN(CCNC(=O)CN(C)C(=O)CN(C)C(=O)CN(C)C(=O)CN(C)C(=O)CN(C)C(=O)CN(C)C(=O)CN(C)C(=O)CN(C)C(=O)CN(C)C(=O)CN(C)C(=O)CN(C)C(=O)CN(C)C(=O)CN(C)C(=O)CN(C)C(=O)CN(C)C(=O)CC[C@H](NC(=O)CC[C@H](NC(=O)CC[C@H](NC(=O)CCCCCCCCCCCCCCCCCCC(=O)O)C(=O)O)C(=O)O)C(=O)O)CC1)C(=O)N[C@@H](CCCN)C(=O)N(C)[C@@H](C)C(=O)N[C@@H](CCCNC(=N)N)C(=O)NCC(N)=O [Compound 34, C20DA-gGlu3-Sar15-AEPipAc-Tyr-Phe-NMeLeu-Nle-Orn-NMeAla-Arg-Gly-NH2] (HELM PEPTIDE1{[O=C(O)CCCCCCCCCCCCCCCCCCC(=O)[*:2]].[gGlu].[gGlu].[gGlu].[Sar].[Sar].[Sar].[Sar].[Sar].[Sar].[Sar].[Sar].[Sar].[Sar].[Sar].[Sar].[Sar].[Sar].[Sar].[O=C(CN1CCN(CCN[*:1])CC1)[*:2]].Y.F.[meL].[Nle].[Orn].[meA].R.G.[am]}$$$$V2.0) | 24.6 | > 1000 | 9 |
| CCCC[C@H](NC(=O)[C@H](CC(C)C)N(C)C(=O)[C@H](Cc1ccccc1)NC(=O)[C@H](Cc1ccc(O)cc1)NC(=O)CN1CCN(CCNC(=O)CN(C)C(=O)CN(C)C(=O)CN(C)C(=O)CN(C)C(=O)CN(C)C(=O)CN(C)C(=O)CN(C)C(=O)CN(C)C(=O)CN(C)C(=O)CN(C)C(=O)CN(C)C(=O)CN(C)C(=O)CN(C)C(=O)CN(C)C(=O)CN(C)C(=O)CC[C@H](NC(=O)CC[C@H](NC(=O)CC[C@H](NC(=O)CCCCCCCCCCCCCCCCC(=O)O)C(=O)O)C(=O)O)C(=O)O)CC1)C(=O)N[C@@H](CCCCN)C(=O)N1CCC[C@H]1C(=O)N[C@@H](CCCNC(=N)N)C(=O)NCC(N)=O [Compound 46, C18DA-gGlu3-Sar15-AEPipAc-Tyr-Phe-NMeLeu-Nle-Lys-Pro-Arg-Gly-NH2] (HELM PEPTIDE1{[O=C(O)CCCCCCCCCCCCCCCCC(=O)[*:2]].[gGlu].[gGlu].[gGlu].[Sar].[Sar].[Sar].[Sar].[Sar].[Sar].[Sar].[Sar].[Sar].[Sar].[Sar].[Sar].[Sar].[Sar].[Sar].[O=C(CN1CCN(CCN[*:1])CC1)[*:2]].Y.F.[meL].[Nle].K.P.R.G.[am]}$$$$V2.0) | 26.2 | > 1000 | 13 |
